Laboratory results as given in US5665704A, “Receptor specific atrial natriuretic peptides” (Genentech, Inc., priority 1995, dated 1997).
Bridge positions count the residues as written; N and C are the ends. Square brackets hold non-standard residues; d marks the D form. Peptide text beside a SMILES is read from it. Cha = N[C@@H](CC1CCCCC1)C(=O)O; hCys = N[C@@H](CCS)C(=O)O

Assays:
hNPR-A = molecular target: T1, hNPR-A (Homo sapiens, UniProt P16066); test: Binding affinity for hNPR-A (competitive displacement of I^125 labeled wild-type ANF); conditions: Table I; read-out: Binding Affinity IC50 (pM) hNPR-A
T1 sequence (P16066 33-1061): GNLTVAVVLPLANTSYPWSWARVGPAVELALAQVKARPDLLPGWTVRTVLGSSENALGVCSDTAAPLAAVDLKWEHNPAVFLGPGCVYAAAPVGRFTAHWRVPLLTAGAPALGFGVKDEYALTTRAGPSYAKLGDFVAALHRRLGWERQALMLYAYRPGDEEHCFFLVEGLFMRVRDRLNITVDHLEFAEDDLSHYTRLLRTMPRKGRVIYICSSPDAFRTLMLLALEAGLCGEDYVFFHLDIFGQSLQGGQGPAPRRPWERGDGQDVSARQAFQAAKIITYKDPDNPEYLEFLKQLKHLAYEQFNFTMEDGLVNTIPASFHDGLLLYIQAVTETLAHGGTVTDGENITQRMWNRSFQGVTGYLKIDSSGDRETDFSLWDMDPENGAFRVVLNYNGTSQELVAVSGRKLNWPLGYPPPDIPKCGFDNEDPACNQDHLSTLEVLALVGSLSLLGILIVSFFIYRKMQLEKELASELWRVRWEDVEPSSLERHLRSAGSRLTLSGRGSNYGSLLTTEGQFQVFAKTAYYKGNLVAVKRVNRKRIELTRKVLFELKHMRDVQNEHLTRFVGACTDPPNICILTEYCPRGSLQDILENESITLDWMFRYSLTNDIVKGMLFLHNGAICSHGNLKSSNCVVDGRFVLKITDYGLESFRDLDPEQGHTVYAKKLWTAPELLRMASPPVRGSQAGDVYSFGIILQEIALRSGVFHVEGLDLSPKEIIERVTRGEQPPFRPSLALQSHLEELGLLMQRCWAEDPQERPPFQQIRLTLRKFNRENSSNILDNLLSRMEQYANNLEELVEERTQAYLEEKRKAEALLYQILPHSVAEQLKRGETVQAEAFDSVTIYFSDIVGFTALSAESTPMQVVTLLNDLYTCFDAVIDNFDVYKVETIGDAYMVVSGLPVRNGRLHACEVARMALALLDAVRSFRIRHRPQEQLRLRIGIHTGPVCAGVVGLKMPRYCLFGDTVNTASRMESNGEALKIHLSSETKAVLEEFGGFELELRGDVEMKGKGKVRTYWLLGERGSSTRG

hNPR-C = molecular target: T2, hNPR-C (Homo sapiens, UniProt P17342); test: Binding affinity for clearance receptor hNPR-C; conditions: Table I; read-out: Binding Affinity IC50 (pM) hNPR-C
T2 sequence (P17342 27-541): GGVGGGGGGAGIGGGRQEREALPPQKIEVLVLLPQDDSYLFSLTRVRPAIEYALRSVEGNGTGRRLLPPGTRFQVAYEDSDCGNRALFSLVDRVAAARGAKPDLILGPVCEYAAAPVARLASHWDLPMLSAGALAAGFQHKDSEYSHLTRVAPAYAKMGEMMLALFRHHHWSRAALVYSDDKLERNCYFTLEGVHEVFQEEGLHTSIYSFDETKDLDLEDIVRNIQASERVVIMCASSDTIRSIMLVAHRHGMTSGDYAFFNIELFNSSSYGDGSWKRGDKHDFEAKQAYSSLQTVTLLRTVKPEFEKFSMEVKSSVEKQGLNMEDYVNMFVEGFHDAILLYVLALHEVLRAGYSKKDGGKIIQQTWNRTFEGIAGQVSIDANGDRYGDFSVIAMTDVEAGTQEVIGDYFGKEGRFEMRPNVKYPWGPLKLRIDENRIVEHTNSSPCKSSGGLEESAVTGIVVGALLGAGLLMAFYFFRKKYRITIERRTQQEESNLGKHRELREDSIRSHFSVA
Source text: For assay systems to measure binding of hANF and the compounds of this invention to hNPR-C see: Schank, D. B., et al., Biochem. Biophys. Res. Comm. 127:433-442 (1985); Scarborough, R. M., J. Biol. Chem. 261:12960-12964 and WO 90/01940.

Row | Structure (SMILES) | IC50 (hNPR-A) [pM] | IC50 (hNPR-C) [pM]
1 | CC[C@H](C)[C@@H]1NC(=O)[C@H](CCCNC(=N)N)NC(=O)[C@H](CC(=O)O)NC(=O)[C@H](CCSC)NC(=O)[C@H](CO)NC(=O)CNC(=O)[C@H]([C@@H](C)O)NC(=O)[C@H](Cc2ccccc2)NC(=O)[C@@H](NC(=O)[C@H](CO)NC(=O)[C@H](CO)NC(=O)[C@H](CCCNC(=N)N)NC(=O)[C@H](CCCNC(=N)N)NC(=O)[C@H](CC(C)C)NC(=O)[C@@H](N)CO)CSSC[C@@H](C(=O)N[C@@H](CC(N)=O)C(=O)N[C@@H](CO)C(=O)N[C@@H](Cc2ccccc2)C(=O)N[C@@H](CCCNC(=N)N)C(=O)N[C@@H](Cc2ccc(O)cc2)C(=O)O)NC(=O)CNC(=O)[C@H](CC(C)C)NC(=O)CNC(=O)[C@H](CO)NC(=O)[C@H](CCC(N)=O)NC(=O)[C@H](C)NC(=O)CNC1=O [ANF50] (H-SLRRSSCFTGSMDRIGAQSGLGCNSFRY-OH; disulfide 7-23) | 570 | 251000
2 | CC[C@H](C)[C@@H]1NC(=O)[C@H](CCCNC(=N)N)NC(=O)[C@H](CC(=O)O)NC(=O)[C@H](CCSC)NC(=O)[C@@H]2CCCN2C(=O)[C@H](CCCNC(=N)N)NC(=O)[C@H](CCC(=O)O)NC(=O)[C@H](Cc2ccccc2)NC(=O)[C@@H](NC(=O)[C@H](CO)NC(=O)[C@H](CO)NC(=O)[C@H](CCCNC(=N)N)NC(=O)[C@H](CCCNC(=N)N)NC(=O)[C@H](CC(C)C)NC(=O)[C@@H](N)CO)CSSC[C@@H](C(=O)N[C@@H](CC(N)=O)C(=O)N[C@@H](CO)C(=O)N[C@@H](Cc2ccccc2)C(=O)N[C@@H](CCCNC(=N)N)C(=O)N[C@@H](Cc2ccc(O)cc2)C(=O)O)NC(=O)CNC(=O)[C@H](CC(C)C)NC(=O)CNC(=O)[C@H](CO)NC(=O)[C@H](CCC(N)=O)NC(=O)[C@H](C)NC(=O)CNC1=O [ANF51] (H-SLRRSSCFERPMDRIGAQSGLGCNSFRY-OH; disulfide 7-23) | 4550 | 32200
3 | CC[C@H](C)[C@@H]1NC(=O)[C@H](CCCNC(=N)N)NC(=O)[C@H](CC(=O)O)NC(=O)[C@H]([C@@H](C)CC)NC(=O)[C@H](CO)NC(=O)CNC(=O)[C@H]([C@@H](C)O)NC(=O)[C@H](Cc2ccccc2)NC(=O)[C@@H](CO)NC(=O)[C@@H](NC(=O)[C@H](CO)NC(=O)[C@H](CO)NC(=O)[C@H](CCCNC(=N)N)NC(=O)[C@H](CCCNC(=N)N)NC(=O)[C@H](CC(C)C)NC(=O)[C@@H](N)CO)CSSC[C@@H](C(=O)N[C@@H](CC(N)=O)C(=O)N[C@@H](CO)C(=O)N[C@@H](Cc2ccccc2)C(=O)N[C@@H](CCCNC(=N)N)C(=O)N[C@@H](Cc2ccc(O)cc2)C(=O)O)NC(=O)CNC(=O)[C@H](CC(C)C)NC(=O)CNC(=O)[C@H](CO)NC(=O)[C@H](CCC(N)=O)NC(=O)[C@H](C)NC(=O)[C@H](CCCNC(=N)N)NC1=O [ANF74] (H-SLRRSSC[dS]FTGSIDRIRAQSGLGCNSFRY-OH; disulfide 7-24) | 29400 | 1e+07
4 | CC[C@H](C)[C@@H]1NC(=O)[C@H](CCCNC(=N)N)NC(=O)[C@H](CC(=O)O)NC(=O)[C@H]([C@@H](C)CC)NC(=O)[C@H](CO)NC(=O)CNC(=O)[C@H]([C@@H](C)O)NC(=O)[C@H](Cc2ccccc2)NC(=O)[C@@H](C)NC(=O)[C@@H](NC(=O)[C@H](CO)NC(=O)[C@H](CO)NC(=O)[C@H](CCCNC(=N)N)NC(=O)[C@H](CCCNC(=N)N)NC(=O)[C@H](CC(C)C)NC(=O)[C@@H](N)CO)CSSC[C@@H](C(=O)N[C@@H](CC(N)=O)C(=O)N[C@@H](CO)C(=O)N[C@@H](Cc2ccccc2)C(=O)N[C@@H](CCCNC(=N)N)C(=O)N[C@@H](Cc2ccc(O)cc2)C(=O)O)NC(=O)CNC(=O)[C@H](CC(C)C)NC(=O)CNC(=O)[C@H](CO)NC(=O)[C@H](CCC(N)=O)NC(=O)[C@H](C)NC(=O)[C@H](CCCNC(=N)N)NC1=O [ANF75] (H-SLRRSSC[dA]FTGSIDRIRAQSGLGCNSFRY-OH; disulfide 7-24) | 2080 | 2e+06
5 | CC[C@H](C)[C@@H]1NC(=O)[C@H](CCCNC(=N)N)NC(=O)[C@H](CC(=O)O)NC(=O)[C@H]([C@@H](C)CC)NC(=O)[C@H](CO)NC(=O)CNC(=O)[C@H]([C@@H](C)O)NC(=O)[C@H](CC2CCCCC2)NC(=O)[C@@H](NC(=O)[C@H](CO)NC(=O)[C@H](CO)NC(=O)[C@H](CCCNC(=N)N)NC(=O)[C@H](CCCNC(=N)N)NC(=O)[C@H](CC(C)C)NC(=O)[C@@H](N)CO)CSSC[C@@H](C(=O)N[C@@H](CC(N)=O)C(=O)N[C@@H](CO)C(=O)N[C@@H](Cc2ccccc2)C(=O)N[C@@H](CCCNC(=N)N)C(=O)N[C@@H](Cc2ccc(O)cc2)C(=O)O)NC(=O)CNC(=O)[C@H](CC(C)C)NC(=O)CNC(=O)[C@H](CO)NC(=O)[C@H](CCC(N)=O)NC(=O)[C@H](C)NC(=O)[C@H](CCCNC(=N)N)NC1=O [ANF79] (H-SLRRSSC[Cha]TGSIDRIRAQSGLGCNSFRY-OH; disulfide 7-23) | 2.4 | 1.48e+06

Continued, values first:

Row | IC50 (hNPR-A) [pM] | IC50 (hNPR-C) [pM] | Structure (SMILES)
6 | 56 | 3310 | CC[C@H](C)[C@@H]1NC(=O)[C@H](CO)NC(=O)[C@H](CC(=O)O)NC(=O)[C@H]([C@@H](C)CC)NC(=O)[C@H](CCCNC(=N)N)NC(=O)CNC(=O)CNC(=O)[C@H](Cc2ccccc2)NC(=O)[C@@H](NC(=O)[C@H](CO)NC(=O)[C@H](CO)NC(=O)[C@H](CCCNC(=N)N)NC(=O)[C@H](CCCNC(=N)N)NC(=O)[C@H](CC(C)C)NC(=O)[C@@H](N)CO)CSSC[C@@H](C(=O)N[C@@H](CC(N)=O)C(=O)N[C@@H](CO)C(=O)N[C@@H](Cc2ccccc2)C(=O)N[C@@H](CCCNC(=N)N)C(=O)N[C@@H](Cc2ccc(O)cc2)C(=O)O)NC(=O)CNC(=O)[C@H](CC(C)C)NC(=O)CNC(=O)[C@H](CO)NC(=O)[C@H](CCC(N)=O)NC(=O)[C@H](C)NC(=O)[C@H](CCCNC(=N)N)NC1=O [ANF25] (H-SLRRSSCFGGRIDSIRAQSGLGCNSFRY-OH; disulfide 7-23)
7 | 52 | 3.21e+06 | CC[C@H](C)[C@@H]1NC(=O)[C@H](CCCNC(=N)N)NC(=O)[C@H](CC(=O)O)NC(=O)[C@H]([C@@H](C)CC)NC(=O)[C@H](CO)NC(=O)CNC(=O)[C@H]([C@@H](C)O)NC(=O)[C@H](Cc2ccccc2)NC(=O)[C@@H](NC(=O)[C@H](CO)NC(=O)[C@H](CO)NC(=O)[C@H](CCCNC(=N)N)NC(=O)[C@H](CCCNC(=N)N)NC(=O)[C@H](CC(C)C)NC(=O)[C@@H](N)CO)CSSC[C@@H](C(=O)N[C@@H](CC(N)=O)C(=O)N[C@@H](CO)C(=O)N[C@@H](Cc2ccccc2)C(=O)N[C@@H](CCCNC(=N)N)C(=O)N[C@@H](Cc2ccc(O)cc2)C(=O)O)NC(=O)CNC(=O)[C@H](CC(C)C)NC(=O)CNC(=O)[C@H](CO)NC(=O)[C@@H]2CCCN2C(=O)[C@H](C)NC(=O)[C@H](CCCNC(=N)N)NC1=O [ANF31] (H-SLRRSSCFTGSIDRIRAPSGLGCNSFRY-OH; disulfide 7-23)
8 | 3300 |  | CC[C@H](C)[C@@H]1NC(=O)[C@H](CO)NC(=O)[C@H](CC(=O)O)NC(=O)[C@H](CC(C)C)NC(=O)[C@H](CO)NC(=O)CNC(=O)[C@H]([C@@H](C)O)NC(=O)[C@H](Cc2ccccc2)NC(=O)[C@@H](NC(=O)[C@H](CO)NC(=O)[C@H](CO)NC(=O)[C@H](CCCNC(=N)N)NC(=O)[C@H](CC(=O)O)NC(=O)[C@H](CC(C)C)NC(=O)[C@@H](N)CO)CSSC[C@@H]2NC(=O)CNC(=O)[C@H](CC(C)C)NC(=O)CNC(=O)[C@H](CO)NC(=O)[C@H](CCSSCC[C@@H](C(=O)O)NC(=O)[C@H](CCCNC(=N)N)NC(=O)[C@H](Cc3ccccc3)NC(=O)[C@H](CO)NC(=O)[C@H](CC(N)=O)NC2=O)NC(=O)[C@H](C)NC(=O)[C@H](CCCNC(=N)N)NC1=O [ANF70] (H-SLDRSSCFTGSLDSIRA[hCys]SGLGCNSFR[hCys]-OH; disulfide 7-23, 18-28)
